Results as given in patent US20240287089A1, “Preparation and Uses of 7-Azaindenoisoquinolines” (Purdue Research Foundation, priority 0001, published 2024).
Like-named read-outs stand apart in the source and are kept apart here.

What was measured:
[1] = target: 3′-TAMRA-labeled MycG4 DNA; assay: Fluorescence binding assay; conditions: 20° C., 100 mM K+ buffer, pH 7.0; read-out: Apparent Binding Affinity Kd, app
Procedure: Binding Affinity to the Myc G-Quadruplex. Binding affinity of eight 7-aza-8,9-methylenedioxyindenoisoquinolines to MycG4 was determined using a fluorescence binding assay with a 3′-TAMRA-labeled MycG4 DNA. Monitoring TAMRA emission upon drug titration afforded binding isotherms, from which apparent binding affinities, Kd,app, were derived.
Fluorescence-Based Binding Assays. Fluorescence-based binding assays were performed on a Jasco FP-8300 spectrofluorometer equipped with a temperature controller at 20° C. in a quartz cuvette with a 10 mm path length. 3′-TAMRA-labeled MycG4 DNA (Sigma-Aldrich) was diluted to 20 nM using a 75 mM KCl/25 mM potassium phosphate buffer, pH 7.0. […] Fluorescence intensity at 580 nm, the maximum for the free DNA, was plotted against drug:DNA ratio. The apparent binding dissociation constant, Kd,app, was derived for the binding of each compound. Using OriginPro software (OriginLab Corp., United States) the change in fluorescence intensity was fitted to a one-site binding equation,
where B0 is the initial fluorescence intensity, B is maximum change in fluorescence intensity, R is DNA concentration, and L is drug:DNA ratio.

RAJI lymphoma cells = assay: MTS cell viability IC50 assay; format: cell-based; conditions: 72 h
Procedure: Cytotoxicity Results in Raji Non-Hodgkin's Lymphoma Cells. MTS experiments were then conducted to test the anti-proliferative effects of 7-aza-8,9-methylenedioxyindenoisoquinolines in Raji cells. Cells were incubated at 2-2000 nM of each drug for 72 h, and cell viabilities were quantified using the MTS assay. […] This potency trend generally correlated with the western blot results, in which G106 and G108 […] show weaker Myc downregulation.
(§1) MTS Cell Viability IC50 Assay. Drug solutions for MTS IC50 assays of suspension cell lines were made from DMSO stocks by serial-dilutions in 1×PBS (10010-031, Gibco). To set up treatments, drug solutions were plated in triplicates to 96-well tissue culture plates, to which cell-containing media was added to a total volume of 100 μL/well. 100%-viability controls were untreated cells. 2000 cells/well were plated for all suspension cell lines except 3000 cells/well for KMS-27 and 10000 cells/well for CHLA-32. Blanks were cell-free media. Drug treatments were maintained for 72 hr at 37° C. with 5% CO2. To quantify cells, CellTiter 96 AQueous MTS Reagent Powder (G1111, Promega) was dissolved and mixed with phenazine methosulfate (PMS, Sigma-Aldrich P9625) according to manufacturer's instructions. MTS/PMS mix ([…]) was added to treatment wells, 100%-viability control wells, and blank wells. Colors were developed at 37° C. with 5% CO2 for 4 h and absorbance at 490 nm was measured by BioTek Synergy 4 system. To obtain %-viability, A490 values were corrected by blank subtraction, normalized to 100%-viability control, and averaged. Average %-viabilities were plotted against drug dosages to obtain dose-response curves. […] For adherent cell lines, the MTS IC50 assays were conducted the same way as for suspension cell lines except for cell plating and drug treatment. For cell plating, 50 μL of 2000 cells were plated in triplicates to a 96-well tissue culture plate. Cells were allowed sufficient time to become adherent. Serial-diluted drug solutions were made the same way as in the MTS IC50 assays. To set up treatments, drug solutions were mixed with media to two-fold of the final concentrations, and 50 μL of such drug-media mix was then added to 50 μL of plated cells.

AMO-1 = assay: MTS GI50, Myc-dependent panel; format: cell-based; conditions: AMO-1, 72 h, read-out: GI50
Procedure: (§2) Cytotoxicity Results in Myc-dependent Cancer Cell Lines.
as §1

ARD = assay: MTS GI50, Myc-dependent panel; format: cell-based; conditions: ARD, 72 h; read-out: GI50
Procedure: as §2, §1

CCRF-CRM = assay: MTS GI50, Myc-dependent panel; format: cell-based; conditions: CCRF-CRM, 72 h; read-out: GI50
Procedure: as §2, §1

CHLA-32 = assay: MTS GI50, Myc-dependent panel; format: cell-based; conditions: CHLA-32, 72 h; read-out: GI50
Procedure: as §2, §1

CHLA-99 = assay: MTS GI50, Myc-dependent panel; format: cell-based; conditions: CHLA-99, 72 h; read-out: GI50
Procedure: as §2, §1

HL-60 = assay: MTS GI50, Myc-dependent panel; format: cell-based; conditions: HL-60, 72 h, read-out: GI50
Procedure: as §2, §1

K-562 = assay: MTS GI50, Myc-dependent panel; format: cell-based; conditions: K-562, 72 h, read-out: GI50
Procedure: as §2, §1

KMS-27 = assay: MTS GI50, Myc-dependent panel; format: cell-based; conditions: KMS-27, 72 h; read-out: GI50
Procedure: as §2, §1

Kasumi-1 = assay: MTS GI50, Myc-dependent panel; format: cell-based; conditions: Kasumi-1, 72 h, read-out: GI50
Procedure: as §2, §1

L-363 = assay: MTS GI50, Myc-dependent panel; format: cell-based; conditions: L-363, 72 h, read-out: GI50
Procedure: as §2, §1

MCF-7 = assay: MTS GI50, Myc-dependent panel; format: cell-based; conditions: MCF-7, 72 h, read-out: GI50
Procedure: as §2, §1

MDA-MB-231 = assay: MTS GI50, Myc-dependent panel; format: cell-based; conditions: MDA-MB-231, 72 h, read-out: GI50
Procedure: as §2, §1

MOLT-4 = assay: MTS GI50, Myc-dependent panel; format: cell-based; conditions: MOLT-4, 72 h, read-out: GI50
Procedure: as §2, §1

RD-ES = assay: MTS GI50, Myc-dependent panel; format: cell-based; conditions: 72 h, read-out: GI50
Procedure: as §2, §1

RPMI-8226 = assay: MTS GI50, Myc-dependent panel; format: cell-based; conditions: RPMI-8226, 72 h, read-out: GI50
Procedure: as §2, §1

RS4;11 = assay: MTS GI50, Myc-dependent panel; format: cell-based; conditions: RS4;11, 72 h, read-out: GI50
Procedure: as §2, §1

SK-N-MC = assay: MTS GI50, Myc-dependent panel; format: cell-based; conditions: 72 h, read-out: GI50
Procedure: as §2, §1

TC-106 = assay: MTS GI50, Myc-dependent panel; format: cell-based; conditions: TC-106, 72 h; read-out: GI50
Procedure: as §2, §1

TC-32 = assay: MTS GI50, Myc-dependent panel; format: cell-based; conditions: TC-32, 72 h, read-out: GI50
Procedure: as §2, §1

TC-71 = assay: MTS GI50, Myc-dependent panel; format: cell-based; conditions: TC-71, 72 h; read-out: GI50
Procedure: as §2, §1

THP-1 = assay: MTS GI50, Myc-dependent panel; format: cell-based; conditions: THP-1, 72 h, read-out: GI50
Procedure: as §2, §1

Caco-2 cells = assay: Caco-2 permeability; format: in vitro ADME
Procedure: Caco-2 Permeability Studies. The Caco-2 plate was removed from the incubator and washed twice with pre-warmed HBSS (10 mM HEPES, pH 7.4), and then incubated at 37° C. for 30 min. The stock solutions of controls compounds were diluted in DMSO to get 1 mM solutions and then diluted with HBSS (10 mM HEPES, pH 7.4) to get 5 μM working solutions. The stock solutions of the test compounds were diluted in DMSO to get 1 mM solutions and then diluted with HBSS (10 mM HEPES, pH 7.4) to get 5 μM working solutions. The final concentration of DMSO in the incubation system was 0.5%. To determine the rate of drug transport in the apical to basolateral direction, 75 μL of 5 μM working solutions of test compounds was added to the Transwell insert (apical compartment) and the wells in the receiver plate (basolateral compartment) were filled with 235 μL of HBSS (10 mM HEPES, pH 7.4). To determine the rate of drug transport in the basolateral to apical direction, 235 μL of 5 μM working solutions of test compounds were to the receiver plate wells (basolateral compartment) and then the Transwell inserts (apical compartment) were filled with 75 μL of HBSS (10 mM HEPES, pH 7.4). Time 0 samples were prepared by transferring 50 μL of 5 μM working solution to wells of the 96-deepwell plate, followed by the addition of 200 μL cold methanol containing appropriate internal standards (IS). The plates were incubated at 37° C. for 2 h. […] An aliquot of 100 μL of the supernatant was mixed with an appropriate volume of ultra-pure water before LC-MS/MS analysis. To determine the Lucifer Yellow leakage after 2 h transport period, stock solution of Lucifer yellow was prepared in ultra-pure water and diluted with HBSS (10 mM HEPES, pH 7.4) to reach the final concentration of 100 μM and then 100 μL of the Lucifer yellow solution was added to each Transwell insert (apical compartment), followed by filling the wells in the receiver plate (basolateral compartment) with 300 μL of HBSS (10 mM HEPES, pH 7.4). The plates were incubated at 37° C. for 30 minutes. Samples (80 μL) were removed directly from the apical and basolateral wells (using the basolateral access holes) and transferred to wells of new 96 wells plates.

[2] = human, 1 μM
Procedure: Analysis of Plasma Protein Binding and Stability in Human and Mouse Blood Plasma by Equilibrium Dialysis. Frozen plasma (stored at −80° C.) was thawed immediately in a 37° C. water bath. The working solutions of test compound and control compound were prepared in DMSO at 200 μM concentration, and the working solutions were spiked into plasma. The final concentration of compound was 1 μM. The final concentration of DMSO was 0.5%. Ketoconazole was used as positive control in the assay. The dialysis membranes were soaked in ultrapure water for 60 min to separate strips, then in 20% ethanol for 20 min, and then finally in dialysis buffer for 20 min. For equilibrium dialysis, each cell contained plasma sample (150 μL) and was dialyzed against an equal volume of dialysis buffer (PBS). The assay was performed in duplicate. The dialysis plate was sealed and incubated at 37° C. with 5% CO2 at 100 rpm for 6 h. At the end of incubation, samples (50 μL) from both buffer and plasma chambers were transferred to wells of a 96-well plate. Plasma (50 μL) was added to each buffer sample and an equal volume of PBS was added to the collected plasma sample. Cold acetonitrile (400 μL) containing internal standards (IS, 100 nM alprazolam, 200 nM labetalol, 200 nM imipramine and 2 μM ketoprofen) was added to precipitate protein and release compounds. Samples were vortexed for 2 min and centrifuged for 30 min at 3,220 g. An aliquot (100 μL) of the supernatant was diluted with ultra-pure H2O (100 μL), and the mixture was used for LC-MS/MS analysis. For stability determination in plasma, a spiked plasma sample (50 μL) was transferred to a new plate and incubated at 37° C., 5% CO2 for 0 and 6 h. At designated time points, PBS (50 μL) was added and mixed thoroughly, followed by the addition of room temperature quench solution [400 μL of acetonitrile containing internal standards (IS, 100 nM alprazolam, 200 nM labetalol, 200 nM imipramine and 2 μM ketoprofen)] to precipitate protein and release compounds. Samples were vortexed for 2 min and centrifuged for 30 min at 3,220 g. An aliquot (400 μL) of the supernatant was diluted by ultra-pure H2O, and the mixture was used for LC-MS/MS analysis. The concentrations of test compounds in the buffer and plasma chambers were determined from peak area ratios.

in vivo = conditions: male, CD1, mouse, iv, 20 mg/kg
Procedure: Brain Penetration Studies. […] The concentrations were determined by LC-MS/MS with direct measurement of the plasma samples. The brain tissue was homogenized with water using a 3:1 ratio of water (mL) to brain (g) before determination of the concentrations (ng/mL) in the brain homogenates, and the homogenate values then were multiplied by a factor of 4 to obtain the brain concentrations (ng/g).

Compound	Kd [1] [nM]	IC50 (RAJI lymphoma cells; Homo sapiens, Raji) [nM]	GI50 (AMO-1; Homo sapiens, AMO1) [nM]	GI50 (ARD) [nM]	GI50 (CCRF-CRM) [nM]	GI50 (CHLA-32) [nM]	GI50 (CHLA-99) [nM]	GI50 (HL-60; Homo sapiens) [nM]	GI50 (K-562; Homo sapiens, K562) [nM]	GI50 (KMS-27) [nM]	GI50 (Kasumi-1; Homo sapiens) [nM]	GI50 (L-363; Homo sapiens) [nM]	GI50 (MCF-7; Homo sapiens, MCF7) [nM]	GI50 (MDA-MB-231; Homo sapiens) [nM]	GI50 (MOLT-4; Homo sapiens) [nM]	GI50 (RD-ES) [nM]	GI50 (RPMI-8226; Homo sapiens) [nM]	GI50 (RS4;11; Homo sapiens) [nM]	GI50 (TC-106) [nM]	GI50 (TC-71) [nM]	also measured
COc1cc2c3c(n(CCCN4CCOCC4)c(=O)c2cc1OC)-c1nc2c(cc1C3=O)OCO2 [G101, 2,3-Dimethoxy-6-(3-morpholinopropyl)-5H-[1,3]dioxolo[4″,5″:5′,6′]pyrido[3′,2′:4,5]cyclopenta[1,2-c]isoquinoline-5,12(6H)-dione]	249	340	1220	190	248	708	526	> 2000	1010	530	> 2000	342	> 2000	> 2000	113	608	905	283	848	756	GI50 (SK-N-MC; Homo sapiens): 698 nM; GI50 (TC-32; Homo sapiens): 569 nM; GI50 (THP-1; Homo sapiens): 1320 nM
COc1cc2c3c(n(CCCNCCO)c(=O)c2cc1OC)-c1cc2c(cc1C3=O)OCO2 [LMP744]	11	–	–	77	57	156	77	–	–	190	–	–	–	–	–	24	–	–	277	244	IC50 (RAJI lymphoma cells; RAJI): 120 nM; GI50 (AMO-1): 285 nM; GI50 (HL-60): 354 nM; GI50 (K-562): 219 nM; GI50 (Kasumi-1): 721 nM; GI50 (L-363): 119 nM; GI50 (MCF-7): > 2000 nM; GI50 (MDA-MB-231): 968 nM; GI50 (MOLT-4): 4 nM; GI50 (RPMI-8226): 620 nM; GI50 (RS4;11): 30 nM; GI50 (SK-N-MC): 237 nM; GI50 (TC-32): 121 nM; GI50 (THP-1): 305 nM
COc1cc2c3c(n(CCCNC(C)C)c(=O)c2cc1OC)-c1nc2c(cc1C3=O)OCO2 [G103, 6-(3-(Isopropylamino)propyl)-2,3-dimethoxy-5H-[1,3]dioxolo [4″,5″:5′,6′]pyrido[3′,2′:4,5]cyclopenta[1,2-c]isoquinoline-5,12(6H)-dione]	–	167	317	70	57	55	89	328	182	206	432	126	> 2000	644	19	31	234	53	202	153	GI50 (SK-N-MC; Homo sapiens): 150 nM; GI50 (TC-32; Homo sapiens): 55 nM; GI50 (THP-1; Homo sapiens): 602 nM; Recovery (%)AP-BL (Caco-2 cells; Caco-2): 36.17%; Recovery (%)BL-AP (Caco-2 cells; Caco-2): 75.54%; Papp (A→B) (Caco-2 cells; Caco-2, 5 μM, 2 h): 1.55 10^−6, cm/s; Papp (B→A) (Caco-2 cells; Caco-2, 5 μM, 2 h): 8.95 10^−6, cm/s; % Stability at 6 hrs [2]: 94.96%; Cmax (in vivo): 3810 ng/g
COc1cc2c3c(n(CCCN4CCOCC4)c(=O)c2cc1OC)-c1cc2c(cc1C3=O)OCO2 [LMP400, indotecan]	301	190	738	126	316	812	773	1390	864	543	> 2000	214	> 2000	1900	239	472	989	336	605	1060	GI50 (SK-N-MC; Homo sapiens): 1050 nM; GI50 (TC-32; Homo sapiens): 574 nM; GI50 (THP-1; Homo sapiens): 915 nM
COc1cc2c3c(n(CCCn4ccnc4)c(=O)c2cc1OC)-c1nc2c(cc1C3=O)OCO2 [G102, 6-(3-(1H-Imidazol-1-yl)propyl)-2,3-dimethoxy-5H-[1,3]dioxolo[4″,5″:5′,6′]pyrido[3′,2′:4,5]cyclopenta[1,2-c]isoquinoline-5,12(6H)-dione]	147	153	804	111	117	280	265	> 2000	580	238	> 2000	232	> 2000	1050	43	180	481	120	229	199	GI50 (SK-N-MC; Homo sapiens): 170 nM; GI50 (TC-32; Homo sapiens): 127 nM; GI50 (THP-1; Homo sapiens): 1020 nM
